In patent publication US8758816B2, “Compositions comprising azelastine and methods of use thereof” (priority 2004, dated 2014):
Several values for one entry are separate records, joined by “and”; a condition that tells them apart may be missing. Equal entries are not always repeated. Structures can show the parent of a compound that is named as a salt.

Assays:
[1] = test system: patients with seasonal allergic rhinitis (SAR); experiment: MP 428 study: adverse events, Safety Population; format: in vivo, human
Experimental: A two-week, randomized, double-blind study, which evaluated the effects of the co-administration of ASTELIN® (azelastine hydrochloride (HCl)) and FLONASE® (fluticasone propionate) compared to either product alone in patients with seasonal allergic rhinitis (SAR) was conducted during the 2006 Texas mountain cedar season. After a 5-day placebo lead-in period, 151 patients with moderate-to-severe allergic rhinitis symptoms were randomized to either: (1) (49 total patients) ASTELIN® (azelastine hydrochloride (HCl)) plus placebo saline nasal spray 2 sprays per nostril, 15 minutes apart, twice daily (AM & PM); (2) (50 total patients) FLONASE® (fluticasone propionate) plus placebo saline nasal spray, 2 sprays per nostril, 15 minutes apart, once daily (AM) and two sessions of placebo saline nasal spray, 2 sprays per nostril, 15 minutes apart (PM); or (3) (52 total patients) the co-administration of ASTELIN® (azelastine hydrochloride (HCl)) 2 sprays per nostril plus FLONASE® (fluticasone propionate) 2 sprays per nostril (AM), 15 minutes apart, and ASTELIN® (azelastine hydrochloride (HCl)) 2 sprays per nostril plus placebo saline nasal spray, 15 minutes apart, (PM) for a 2-week double-blind treatment period.
The most common adverse events (AEs) were bitter taste (8.2% in ASTELIN® (azelastine hydrochloride (HCl)) group, 2.0% in FLONASE® (fluticasone propionate) group, 13.5% in co-administration group) and headache (4.1% in ASTELIN® (azelastine hydrochloride (HCl)) group, 4.0% in FLONASE® (fluticasone propionate) group, 5.8% in co-administration group). No other AE was reported by more than one patient in any treatment group. There were no discontinuations due to AEs.

[2] = test system: patients with seasonal allergic rhinitis (SAR); experiment: MP 428 study: Adult Rhinoconjunctivitis Quality of Life Questionnaire outcomes, change from baseline; format: in vivo, human; conditions: Day 14/ET; Intent-to-Treat Population

CN1CCCC(n2nc(Cc3ccc(Cl)cc3)c3ccccc3c2=O)CC1 (racemic) [Azelastine, (±)-1-(2H)-phthalazinone, 4-[(4-chlorophenyl)methyl]-2-(hexahydro-1-methyl-1H-azepin-4-yl)-, mono-hydrochloride] was tested, and the “Treatment-Emergent AE: MYALGIA” value ([1]; max severity Mild) was 0 (0.0) No. of Patients (%), the “Treatment-Emergent AE: NASAL DISCOMFORT” value ([1]; max severity Mild) was 0 (0.0) No. of Patients (%) and the “Treatment-Emergent AE: NECK PAIN” value ([1]; max severity Mild) was 1 (2.0) No. of Patients (%). For the same compound, the “Treatment-Emergent AE: NERVOUS SYSTEM DISORDERS, Any Preferred Term” value ([1]; max severity Mild) was 1 (2.0) No. of Patients (%), the “Treatment-Emergent AE: PHARYNGOLARYNGEAL PAIN” value ([1]; max severity Mild) was 0 (0.0) No. of Patients (%) and the “Treatment-Emergent AE: RESPIRATORY, THORACIC AND MEDIASTINAL DISORDERS, Any Preferred Term” value (from here on “Treatment-Emergent AE: RESPIRATORY”) ([1]; max severity Mild) was 0 (0.0) No. of Patients (%). For the same compound, the “Treatment-Emergent AE: STOMACH DISCOMFORT” value ([1]; max severity Mild) was 0 (0.0) No. of Patients (%), the “Treatment-Emergent AE: Any Adverse Event” value ([1]; max severity Mild, mono-hydrochloride) was 3 (6.1) No. of Patients (%) and 3 (0.1) No. of Patients (%) and the “Treatment-Emergent AE: Any Adverse Event” value ([1]; max severity Moderate) was 2 (4.1) No. of Patients (%). The “Treatment-Emergent AE: DRY MOUTH” value ([1]; max severity Moderate) was 0 (0.0) No. of Patients (%), the “Treatment-Emergent AE: DYSGEUSIA” value ([1]; max severity Moderate) was 0 (0.0) No. of Patients (%) and the “Treatment-Emergent AE: EAR AND LABYRINTH DISORDERS, Any Preferred Term” value ([1]; max severity Moderate) was 1 (2.0) No. of Patients (%). The “Treatment-Emergent AE: EAR PAIN” value ([1]; max severity Moderate) was 1 (2.0) No. of Patients (%), the “Treatment-Emergent AE: EPISTAXIS” value ([1]; max severity Moderate) was 0 (0.0) No. of Patients (%) and the “Treatment-Emergent AE: GASTROINTESTINAL DISORDERS, Any Preferred Term” value ([1]; max severity Moderate) was 0 (0.0) No. of Patients (%). The “Treatment-Emergent AE: HEADACHE” value ([1]; max severity Moderate) was 1 (2.0) No. of Patients (%), the “Treatment-Emergent AE: MUSCULOSKELETAL AND CONNECTIVE TISSUE DISORDERS, Any Preferred Term” value ([1]; max severity Moderate) was 0 (0.0) No. of Patients (%) and the “Treatment-Emergent AE: MYALGIA” value ([1]; max severity Moderate) was 0 (0.0) No. of Patients (%). The “Treatment-Emergent AE: NASAL DISCOMFORT” value ([1]; max severity Moderate) was 0 (0.0) No. of Patients (%), the “Treatment-Emergent AE: NECK PAIN” value ([1]; max severity Moderate) was 0 (0.0) No. of Patients (%) and the “Treatment-Emergent AE: NERVOUS SYSTEM DISORDERS, Any Preferred Term” value ([1]; max severity Moderate) was 1 (2.0) No. of Patients (%). For the same compound, the “Treatment-Emergent AE: PHARYNGOLARYNGEAL PAIN” value ([1]; max severity Moderate) was 1 (2.0) No. of Patients (%), the “Treatment-Emergent AE: RESPIRATORY” value ([1]; max severity Moderate) was 1 (2.0) No. of Patients (%) and the “Treatment-Emergent AE: STOMACH DISCOMFORT” value ([1]; max severity Moderate) was 0 (0.0) No. of Patients (%). The “Treatment-Emergent AE: Any Adverse Event” value ([1]; max severity Severe) was 3 (6.1) No. of Patients (%), the “Treatment-Emergent AE: DRY MOUTH” value ([1]; max severity Severe) was 0 (0.0) No. of Patients (%) and the “Treatment-Emergent AE: DYSGEUSIA” value ([1]; max severity Severe) was 3 (6.1) No. of Patients (%). For the same compound, the “Treatment-Emergent AE: EAR AND LABYRINTH DISORDERS, Any Preferred Term” value ([1]; max severity Severe) was 0 (0.0) No. of Patients (%), the “Treatment-Emergent AE: EAR PAIN” value ([1]; max severity Severe) was 0 (0.0) No. of Patients (%) and the “Treatment-Emergent AE: EPISTAXIS” value ([1]; max severity Severe) was 0 (0.0) No. of Patients (%). For the same compound, the “Treatment-Emergent AE: GASTROINTESTINAL DISORDERS, Any Preferred Term” value ([1]; max severity Severe) was 3 (6.1) No. of Patients (%), the “Treatment-Emergent AE: HEADACHE” value ([1]; max severity Severe) was 0 (0.0) No. of Patients (%) and the “Treatment-Emergent AE: MUSCULOSKELETAL AND CONNECTIVE TISSUE DISORDERS, Any Preferred Term” value ([1]; max severity Severe) was 0 (0.0) No. of Patients (%). The “Treatment-Emergent AE: MYALGIA” value ([1]; max severity Severe) was 0 (0.0) No. of Patients (%), the “Treatment-Emergent AE: NASAL DISCOMFORT” value ([1]; max severity Severe) was 0 (0.0) No. of Patients (%) and the “Treatment-Emergent AE: NECK PAIN” value ([1]; max severity Severe) was 0 (0.0) No. of Patients (%). The “Treatment-Emergent AE: NERVOUS SYSTEM DISORDERS, Any Preferred Term” value ([1]; max severity Severe) was 0 (0.0) No. of Patients (%), the “Treatment-Emergent AE: PHARYNGOLARYNGEAL PAIN” value ([1]; max severity Severe) was 0 (0.0) No. of Patients (%) and the “Treatment-Emergent AE: RESPIRATORY” value ([1]; max severity Severe) was 0 (0.0) No. of Patients (%). For the same compound, the “Treatment-Emergent AE: STOMACH DISCOMFORT” value ([1]; max severity Severe) was 0 (0.0) No. of Patients (%), the “adverse event: bitter taste” value ([1]; share of treatment group) was 8.2% and the “adverse event: headache” value ([1]; share of treatment group) was 4.1%. For the same compound, the “RQLQ Change From Baseline in Activity, LS Mean” value [2] was −1.37, the “RQLQ Change From Baseline in Activity, Mean” value [2] was −1.25 and the “RQLQ Change From Baseline in Activity, Median” value [2] was −1.00. For the same compound, the “RQLQ Change From Baseline in Emotional, LS Mean” value [2] was −1.26, the “RQLQ Change From Baseline in Emotional, Mean” value [2] was −1.13 and the “RQLQ Change From Baseline in Emotional, Median” value [2] was −1.00. The “RQLQ Change From Baseline in Eye Symptoms, LS Mean” value [2] was −1.64, the “RQLQ Change From Baseline in Eye Symptoms, Mean” value [2] was −1.49 and the “RQLQ Change From Baseline in Eye Symptoms, Median” value [2] was −1.25. For the same compound, the “RQLQ Change From Baseline in Nasal Symptoms, LS Mean” value [2] was −1.46, the “RQLQ Change From Baseline in Nasal Symptoms, Mean” value [2] was −1.31 and the “RQLQ Change From Baseline in Nasal Symptoms, Median” value [2] was −1.25. For the same compound, the “RQLQ Change From Baseline in Non-nose/eye Symptoms, LS Mean” value [2] was −0.88, the “RQLQ Change From Baseline in Non-nose/eye Symptoms, Mean” value [2] was −0.82 and the “RQLQ Change From Baseline in Non-nose/eye Symptoms, Median” value [2] was −0.86. The “RQLQ Change From Baseline in Overall Score, LS Mean” value [2] was −1.21, the “RQLQ Change From Baseline in Overall Score, Mean” value [2] was −1.11 and the “RQLQ Change From Baseline in Overall Score, Median” value [2] was −1.13. For the same compound, the “RQLQ Change From Baseline in Practical Problems, LS Mean” value [2] was −1.59, the “RQLQ Change From Baseline in Practical Problems, Mean” value [2] was −1.50 and the “RQLQ Change From Baseline in Practical Problems, Median” value [2] was −1.33. For the same compound, the “RQLQ Change From Baseline in Sleep, LS Mean” value [2] was −1.23, the “RQLQ Change From Baseline in Sleep, Mean” value [2] was −1.02 and the “RQLQ Change From Baseline in Sleep, Median” value [2] was −1.00.
